≈ marks a conversion by molar mass, not a printed value. Where two headings read alike, the source gives them in different places.
Experiments:
rust = type: in vivo; details: dose as in E145
[1] = type: in vivo, wheat; details: dose as in E145
[2] = type: in vivo, wheat; details: Serial 29: Carbendazim 50 g a.i. (control agent)
leaf blight = type: in vivo; details: dose as in E145
[3] = set-up: species or system wheat; details: in vivo
wheat scab [4] = type: in vivo, Fusarium spp.
Fusarium graminearum = assay: microbe, parasite or virus in culture; type: cell-based; details: sensitive strains, Fusarium graminearum (both types of fusaria)
[5] = tested on: DON toxin synthesis capability of thalli; set-up: species or system Fusarium spp.; details: in vivo
[6] = type: in vivo, wheat
wheat scab [7] = type: in vivo, Fusarium spp.; details: sprayed twice; g ai. agent/mu, Jinggangmycin+Metconazole by row: r16 1+15; r17 3+10; r18 5+5; r19 5+10; r20 5+15; r21 10+3; r22 10+10; r23 10+15; r24 50+3; r25 50+10; r26 50+15; r27 100+5; r28 100+10; Jinggangmycin alone r29 100; r30 50; r31 10; r32 5; r33 3; r34 1; Metconazole alone r35 15; r36 10; r37 5; r38 3; r39 Carbendazim 40
powdery mildew = type: in vivo; details: dose as in E145
wheat scab [8] = type: in vivo, Fusarium spp.; details: Serial 29: Carbendazim 50 g a.i. (control agent)
Fusarium asiaticum = assay: microbe, parasite or virus in culture; type: cell-based

## COC(=O)Nc1nc2ccccc2[nH]1 [Carbendazim, carbendazim]
rust
  Disease Index Prevention Effect % Rust: 61.2%
[1]
  Grain Toxin Content: 5.67 μg of toxin/g of kernels
[1]; vs control
  DON Reduction Percentage (%): 55.0%
[2]
  Grain Toxin Content (mg of DON/Kg of grain): 4.35 mg of DON/Kg of grain
  Rate of Decrease in Toxin Content in Grains (%): 32.7%
Leaf blight
  Disease Index Prevention Effect % Leaf Blight: 48.5%
[3]
  Thousand Kernel Weight: 41.6 g
Wheat scab [4]; sprayed twice, g ai. agent/mu, Jinggangmycin+Metconazole by row: r12 0.5+25, r13 1+20, r14 5+5, r15 5+10, r16 5+15, r17 10+3, r18 10+5, r19 10+10, r20 10+15, r21 50+3, r22 50+5, r23 50+10, r24 50+15, r25 100+3, r26 100+5, r27 100+10, r28 100+15, r29 150+3, Jinggangmycin alone r30 0.5, r31 1, r32 5, r33 10, r34 50, r35 100, r36 150, Metconazole alone r37 3, r38 5, r39 10, r40 15, r41 20, r42 25, r4
  Disease Index Prevention Effect % Actual Prevention Effect: 67.5%
Wheat scab [4]; used for treatment alone
  prevention effect on head blight: 67.5%
Fusarium graminearum
  ED50: 0.45 µg/mL (≈ 2.35 µM)
[5]
  DON Synthesis Capability: 28.94
[6]; dose by row as in E139
  Grain Toxin Content: 4.4 μg of toxin/g of kernels
[6]; used for treatment alone
  decrease of toxin contamination level in comparison with the blank control: 58.5%
  toxin contamination level of grains: 4.4 mg/kg of grains
[6]; vs blank control, dose by row as in E139
  DON Contamination Reduction Rate %: 58.5%
Wheat scab [7]
  Disease Index Prevention Effect % Head Blight: 38.6%
Powdery mildew
  Disease Index Prevention Effect % Powdery Mildew: 52.6%
Wheat scab [8]
  Disease Index Prevention Effect % Head Blight: 49.04%
Fusarium asiaticum
  ED50: 0.45 µg/mL (≈ 2.35 µM)

## CCOC(=O)C(C#N)=C(N)c1ccccc1 [phenamacril]
Fusarium graminearum
  ED50: 0.165 µg/mL (≈ 0.763 µM)
Fusarium asiaticum; sensitive strains, Fusarium asiaticum (both types of fusaria)
  ED50: 0.165 µg/mL (≈ 0.763 µM)
